Measurements reported in US11591341B2 (ALIGOS THERAPEUTICS, INC., priority 2019, dated 2023).

Tested on: HBV
Test: HBV-DNA Antiviral Assay Using HepG2.117 Cells (intracellular HBV DNA by qPCR)
Assay type: cell-based, hepatitis B virus (genotype D)
Details: Hepatitis B virus, HepG2.117
Outline: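 Endpoint: qPCR copy number of intracellular HBV DNA after 3-day compound exposure, with inhibition set relative to the 2% DMSO control. The cells were doxycycline-free HepG2.117 carrying a Tet-off genotype D genome, dosed at nine 4-fold dilutions. A duplicate plate gave ATP-based viability (CC50).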

| Structure (SMILES) | EC50 |
| --- | --- |
| C[C@@H](NC(=O)c1c2n(c(=O)n1-c1ccc(OCC(F)(F)F)cc1)CCN(C(=O)c1ccc(Br)c(Cl)c1)C2)c1ccccc1 (stereo in doubt) [Example 128, 7-(4-bromo-3-chloro-benzoyl)-3-oxo-N-[rac-(1R)-1-phenylethyl]-2-[4-(2,2,2-trifluoroethoxy)phenyl]-6,8-dihydro-5H-imidazo[1,5-a]pyrazine-1-carboxamide] | 100 to 500 nM |
| CC(C)Oc1ccc(-n2c(C(=O)N[C@@H](C)c3ccccc3)c3n(c2=O)CCN(C(=O)c2ccc(Cl)c(Cl)c2)C3)cc1 (stereo in doubt) [Example 129, 7-(3,4-dichlorobenzoyl)-2-(4-isopropoxyphenyl)-3-oxo-N-[rac-(1S)-1-phenylethyl]-6,8-dihydro-5H-imidazo[1,5-a]pyrazine-1-carboxamide] | 500 to 5000 nM |
| CC(C)Oc1ccc(-n2c(C(=O)N[C@H](C)c3ccccc3)c3n(c2=O)CCN(C(=O)c2ccc(Cl)c(Cl)c2)C3)cc1 (stereo in doubt) [Example 130, 7-(3,4-dichlorobenzoyl)-2-(4-isopropoxyphenyl)-3-oxo-N-[rac-(1R)-1-phenylethyl]-6,8-dihydro-5H-imidazo[1,5-a]pyrazine-1-carboxamide] | 100 to 500 nM |
| C[C@H](NC(=O)c1c2n(c(=O)n1-c1ccc(OC3CCC3)cc1)CCN(C(=O)c1ccc(Br)c(Cl)c1)C2)c1ccccc1 (stereo in doubt) [Example 136, 7-(4-bromo-3-chloro-benzoyl)-2-[4-(cyclobutoxy)phenyl]-3-oxo-N-[rac-(1S)-1-phenylethyl]-6,8-dihydro-5H-imidazo[1,5-a]pyrazine-1-carboxamide] | 100 to 500 nM |
| C[C@@H](NC(=O)c1c2n(c(=O)n1-c1ccc(OC3CCC3)cc1)CCN(C(=O)c1ccc(Br)c(Cl)c1)C2)c1ccccc1 (stereo in doubt) [Example 137, 7-(4-bromo-3-chloro-benzoyl)-2-[4-(cyclobutoxy)phenyl]-3-oxo-N-[rac-(1R)-1-phenylethyl]-6,8-dihydro-5H-imidazo[1,5-a]pyrazine-1-carboxamide] | 100 to 500 nM |
| O=C(c1ccc(Br)c(Cl)c1)N1CCn2c(c3n(c2=O)C[C@H](CO)CN(Cc2ccccc2)C3=O)C1 (stereo in doubt) [Example 146, rac-(11R)-13-benzyl-4-(4-bromo-3-chloro-benzoyl)-11-(hydroxymethyl)-4,7,9,13-tetrazatricyclo[7.5.0.0^2,7]tetradec-1-ene-8,14-dione] | 100 to 500 nM |
| O=C(c1ccc(Br)c(Cl)c1)N1CCn2c(c3n(c2=O)C[C@@H](CO)CN(Cc2ccccc2)C3=O)C1 (stereo in doubt) [Example 147, rac-(11S)-13-benzyl-4-(4-bromo-3-chloro-benzoyl)-11-(hydroxymethyl)-4,7,9,13-tetrazatricyclo[7.5.0.0^2,7]tetradec-1-ene-8,14-dione] | 100 to 500 nM |
| CC[C@@H](NC(=O)c1c2n(c(=O)n1-c1ccc(OC)cc1)CCN(C(=O)c1ccc(Br)c(Cl)c1)C2)c1ccccc1 (stereo in doubt) [Example 150, 7-(4-bromo-3-chloro-benzoyl)-2-(4-methoxyphenyl)-3-oxo-N-[rac-(1R)-1-phenylpropyl]-6,8-dihydro-5H-imidazo[1,5-a]pyrazine-1-carboxamide] | 100 to 500 nM |
| CC[C@H](NC(=O)c1c2n(c(=O)n1-c1ccc(OC)cc1)CCN(C(=O)c1ccc(Br)c(Cl)c1)C2)c1ccccc1 (stereo in doubt) [Example 151, 7-(4-bromo-3-chloro-benzoyl)-2-(4-methoxyphenyl)-3-oxo-N-[rac-(1S)-1-phenylpropyl]-6,8-dihydro-5H-imidazo[1,5-a]pyrazine-1-carboxamide] | 100 to 500 nM |
| COc1ccc(-n2c(C(=O)N[C@H](C)c3ccccc3F)c3n(c2=O)CCN(C(=O)c2ccc(Br)c(Cl)c2)C3)cc1 (stereo in doubt) [Example 161, 7-(4-bromo-3-chloro-benzoyl)-2-(4-methoxyphenyl)-3-oxo-N-[rac-(1R)-1-(2-fluorophenyl)ethyl]-6,8-dihydro-5H-imidazo[1,5-a]pyrazine-1-carboxamide] | < 100 nM |
